Assay results as given in patent US20230416852A1, “METHODS FOR IDENTIFYING COMPOSITIONS FOR INHIBITING VIRAL INFECTIVITY” (priority 2020, published 2023).
Where two headings read alike, the source gives them in different places.

Columns and labels:
[1] = target: T1, Vif function of inhibiting A3G CDA (Human immunodeficiency virus type 1 group M subtype B, UniProt P69723); assay type: biochemical, HIV-1
Source text: This assay detects C to U mutation using a highly specific Stu I restriction enzyme digestion method. FIG. 4A is a schematic diagram of the PCR and restriction digestion-based CDA assay. CCC-150 is converted to CCU-150 under the enzymatic activity of A3G. […] In the presence of Vif, Vif will inhibit A3G enzymatic activity, so that reduced or no CCU-150 will be produced. Therefore, less or no Stu I cutting sites will form, and no digestion will occur.
The CDA products were subjected to PCR followed by Stu I digestion. The digestion products were applied to a 10% polyacrylamide gel for separation. SYBR Gold was used to visualize the bands. L-Cefixime refers to Compound I identified above.

[2] = target: T1, Vif function of inhibiting A3G CDA; assay: biochemical; assay type: biochemical, HIV-1; settings: for hit for restoring A3G CDA in the presence of Vif: 10 μM compounds, 20% cutoff stringency, i.e. 20% increase in A3G CDA versus controls, positive control set as 1
Source text: The A3G CDA edits the CCC sequence to predominantly to a CCU sequence. To specifically measure the C to U rate, three reverse primers R1, R2, and R3 were designed in the initial study.
Using the qPCR-based screening assay described in Example 1, the NCI Diversity Set VI, NCI Mech Set V, and NIH SMR were screened against Vif function of inhibiting A3G. The NCI Diversity Set VI was derived from almost 140,000 compounds available for distribution in the library of the NCI Developmental Therapeutics Program. […] The qPCR-based CDA assay was used to screen the libraries in 96-well plates with negative controls (no A3G and Vif), positive control (no Vif), and 10 μM compounds. Hits were selected at 20% cutoff stringency (above 0.2), i.e., 20% increase in A3G CDA versus controls. Any compounds that restored A3G activity by 20% or more were selected. The positive control was set as 1.

[3] = tested on: HIV IIIB virus; assay: MAGI assay of HIV infectivity in TZM-bl cells; assay type: cell-based, HIV-1; settings: Human immunodeficiency virus 1, IIIB, 48 h, read-out: IC50 antiviral activity
Source text: MAGI assay is a classical method for measuring HIV infectivity (Platt E J et at J Virol 72:2855-2864 (1998)). The assay involves HIV infecting a reporter cell line, the TZM-bl cell line (Platt E J et at J Virol 72:2855-2864 (1998); Derdeyn C A et al. J Virol 74:8358-8367 (2000); Wei X et al. Antimicrob Agents Chemother 46:1896-1905 (2002)). The TZM-bl cell line is a Hela cell derivative that expresses CD4, rendering the cells permissive to HIV-1 infection. These cells also contain an integrated LTR-luciferase and β-galactosidase reporter genes, resulting in expression of firefly luciferase and β-galactosidase protein following HIV-1 integration and subsequent expression of the viral transactivator, Tat.
300 ng of p24 content of HIV IIIB virus was used to infect TZM-bl cells. Different doses of Compound II (redoxal) and C5 were used to treat the infected cells. DMSO treatment was used as a control. Two days post-infection, cells were fixed and β-galactosidase was stained to visualize the infected cells.

[4] = tested on: HIV in PBMC; settings: previous report, Pery E et al. Virology 2015; cited from earlier work
[5] = tested on: A3G expression, Gag expression and processing; assay: Western blot of A3G stability and Gag in transfected 293T cells; assay type: cell-based; settings: 5 μM
Protocol: (§1) An A3G expression vector was co-transfected with Vif, or with the empty vector as control. The A3G expression vector was also co-transfected with either a wild-type viral construct HXB2, Vif deficient viral construct HXB2ΔVif, or pcDNA3.1 (as a control) into 293T cells. Immediately following transfection, 5 μM Compound II (redoxal) was used to treat the 293T cells. After 48 hours post-transfection, culture supernatants were subjected to ultracentrifuge to pellet down the virus. Viral lysates were analyzed by Western blot.

[6] = tested on: CEM cells; assay: Presto Blue Cytotoxicity Assay; settings: read-out: IC50 cytotoxicity, FIG. 6C
Source text: In this assay, live cells show 586 nm fluoresce red. The higher the fluorescence, the more viable the cells are. Therefore, 100% cell death should result in no fluorescence.

[7] = tested on: HIV IIIB replication; assay: HIV IIIB replication in A3G-expressing CEM-GFP cells; assay type: cell-based, HIV-1; settings: Human immunodeficiency virus 1, IIIB, FIG. 6A, read-out: IC50 inhibiting HIV IIIB replication
Protocol: (§2) As discussed above, Vif functions as an inhibitor to A3G antiviral function. […] The A3G-dependent antiviral effects of the hits were tested using CD4+T, CEM-GFP, and CEM SS cell lines. […] The Vif specific inhibitor should show high anti-HIV potency in CEM-GFP cells (and not in CEM SS cells). The CEM-GFP cell line expresses GFP upon HIV infection driven by HIV NL4-3 LTR. It can be used to measure HIV replication (Gervaix A, et at Proc Natl Acad Sci USA. 1997; 94 (9):4653-8.)

[8] = tested on: HIV-1 NL4-3-GFP; assay: HIV-1 NL4-3-GFP infection of CEM SS cells (no A3G); assay type: cell-based; settings: CEM SS cells compared to CEM-GFP cells, FIG. 6B
Protocol: as §2
In FIG. 6B, HIV-1 NL4-3-GFP was used to infect CEM SS cell line.

[9] = tested on: A3G viral encapsidation; assay: Western blot of A3G viral encapsidation (viral lysates from 293T cells); assay type: cell-based; settings: 5 μM, FIG. 7B
Protocol: as §1, with “quinobene” for “Compound II (redoxal)”

[10] = tested on: A3G related G to A hypermutation in HIV-1 viral cDNA; assay: G to A hypermutation analysis of HIV-1 viral cDNA by next-generation sequencing in SupT1 cells; assay type: cell-based; settings: 1 μM; for average G to A hypermutation rate for each position: average over positions; for average G to A hypermutation rate for each position / G to A hypermutation rate / total G to A hypermutation rate: 6 hours, SupT1, HIV IIIB; for total G to A hypermutation rate: total over all positions
Protocol: The hallmark of A3G antiviral function is to induce G to A hypermutation in HIV cDNA. Therefore, it is very important to evaluate whether quinobene restores A3G's capability to induce G to A hypermutation rates in HIV cDNA. To do this, SupT1 cells were infected with HIV IIIB (350 ng p24)+DMSO or HVI IIIB (350 ng p24)+1 μM quinobene for 6 hours. After infection, DNA was isolated using a DNeasy Blood and Tissue DNA isolation kit (QIAGEN). A 199-bp DNA fragment covering a portion of LTR of HIV-1 was amplified with Taq DNA polymerase using the primers IIIB-F (5′-[…]) and HIV-1-R (5′-[…]). The PCR products were purified by QIAquick PCR Purification Kit (Qiagen) and sent to GENEWIZ, Inc (South Plainfield, NJ) for G to A hypermutation analysis using their Amplicon-EZ service, a next-generation sequencing-based sequencing service, allowed detection of low-frequency variants quantitatively. The G to A hypermutation rate was calculated using CLC Genomic Workbench.

[11] = tested on: Vif induced A3G degradation; assay: Western blot of Vif induced A3G degradation in transfected 293T cells; assay type: cell-based; settings: 5 μM, FIG. 7A
Protocol: as §1, with “quinobene” for “Compound II (redoxal)”

[12] = target: T1, Vif function of inhibiting A3G CDA; assay type: biochemical, HIV-1; settings: dose-response retest in qPCR-based CDA assay

T1 sequence (P69723 whole entry): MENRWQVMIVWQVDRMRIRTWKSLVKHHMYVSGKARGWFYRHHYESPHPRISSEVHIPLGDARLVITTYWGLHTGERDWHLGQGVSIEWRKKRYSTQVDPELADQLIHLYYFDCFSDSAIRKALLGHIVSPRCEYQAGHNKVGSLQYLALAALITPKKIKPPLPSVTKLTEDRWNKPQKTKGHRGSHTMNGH

For `C=CC1=C(C(=O)O)N2C(=O)[C@@H](NC(=O)/C(=N\OCC(=O)O)c3csc(N)n3)[C@H]2SC1` [Compound I, cefixime, reference compound], the “restoration of Stu I digestion product” value ([1]; 10 μM) was “dramatically restored the digestion product”, the EC50 [2] was greater than 500 µM and the “hit for restoring A3G CDA in the presence of Vif” value (“hit for restoring A3G CDA” for short) [2] was “hits”.
In the case of `COc1cc(-c2ccc(Nc3ccccc3C(=O)O)c(OC)c2)ccc1Nc1ccccc1C(=O)O` [Compound II, redoxal], the IC50 [3] is given as less than 4 µM, the “restoration of Stu I digestion product” value ([1]; 50 μM) is given as “dramatically restored the digestion product” and the IC50 [4] is given as 0.6 to 3 µM. For the same compound, the EC50 [2] was less than 12.5 µM, the “hit for restoring A3G CDA” value [2] was “hits” and the A3G expression ([5]; FIG. 8) was “enhances A3G expression independent of Vif”. For the same compound, the Gag processing patterns ([5]; FIG. 8) was “may alter Gag processing patterns”, the “overall Gag expression” value ([5]; FIG. 8) was “reduces overall Gag expression” and the “overall Gag expression” value ([5]; FIG. 8, listed as redoxal) was “reduced overall Gag expression”.
For `O=S(=O)(O)c1cc(N=Nc2cc(S(=O)(=O)O)c3cccnc3c2O)ccc1C=Cc1ccc(N=Nc2cc(S(=O)(=O)O)c3cccnc3c2O)cc1S(=O)(=O)O` [Compound IX, quinobene], the IC50 [6] was roughly 50 µM, the IC50 [7] was less than 0.75 µM and the antiviral function [8] was “lost its antiviral function”. The “effects on A3G viral encapsidation” value [9] was “minimal to no effects”, the “positions showing G to A hypermutation rate increases” value ([10]; 22 out of 26 positions versus untreated) was 84.6% and the “average G to A hypermutation rate for each position” value ([10]; listed as Quino) was 2.32%. For the same compound, the “average G to A hypermutation rate for each position” value ([10]; listed as quinobene) was 2.31%, the “G to A hypermutation rate” value ([10]; position 22) was 5.51% and the “G to A hypermutation rate” value ([10]; position 23) was 0.27%. The “G to A hypermutation rate” value ([10]; position 35) was 1.92%, the “G to A hypermutation rate” value ([10]; position 36) was 3.87% and the “G to A hypermutation rate” value ([10]; position 37) was 0.43%. The “G to A hypermutation rate” value ([10]; position 47) was 1.84%, the “G to A hypermutation rate” value ([10]; position 48) was 0.38% and the “G to A hypermutation rate” value ([10]; position 51) was 0%. The “G to A hypermutation rate” value ([10]; position 56) was 0.53%, the “G to A hypermutation rate” value ([10]; position 61) was 6.47% and the “G to A hypermutation rate” value ([10]; position 62) was 0%. The “G to A hypermutation rate” value ([10]; position 65) was 5.65%, the “G to A hypermutation rate” value ([10]; position 68) was 0.38% and the “G to A hypermutation rate” value ([10]; position 71) was 2.13%. The “G to A hypermutation rate” value ([10]; position 72) was 2.1%, the “G to A hypermutation rate” value ([10]; position 73) was 0.28% and the “G to A hypermutation rate” value ([10]; position 78) was 0.28%. For the same compound, the “G to A hypermutation rate” value ([10]; position 126) was 8.57%, the “G to A hypermutation rate” value ([10]; position 127) was 0.33% and the “G to A hypermutation rate” value ([10]; position 136) was 1.39%. For the same compound, the “G to A hypermutation rate” value ([10]; position 157) was 8.43%, the “G to A hypermutation rate” value ([10]; position 158) was 0.19% and the “G to A hypermutation rate” value ([10]; position 168) was 0.6%. For the same compound, the “G to A hypermutation rate” value ([10]; position 177) was 4.16%, the “G to A hypermutation rate” value ([10]; position 178) was 2.37% and the “total G to A hypermutation rate” value ([10]; listed as Quino) was 58.08%. The “total G to A hypermutation rate” value ([10]; listed as quinobene) was 58%, the “restoration of Stu I digestion product” value ([1]; 5 uM) was “dramatically restored the digestion product” and the “influence on Vif induced A3G degradation” value [11] was “minimal to no influence”. For the same compound, the “hit for restoring A3G CDA” value [2] was “hits and hit”.
In the case of `Cn1c(SCc2ccccn2)nc2c1c(=O)[nH]c(=O)n2C` [Compound VII], the “hit for restoring A3G CDA” value [2] is reported as “hits”.
In the case of `Oc1ccccc1-c1nc2c3ccccc3c3ccccc3c2[nH]1` [Compound VI], the “hit for restoring A3G CDA” value [2] is reported as “hits”.
With `O=c1c2ccccc2ncn1-c1ccc(Cl)cc1` [Compound V] the “hit for restoring A3G CDA” value [2] was “hits”.
With `O=c1c(-c2ccc(O)cc2)coc2cc(O)cc(O)c12` [III, genistein] the activity in retest [12] was “did not show any activity” and the “hit for restoring A3G CDA” value [2] was “hits”.
With `C[C@@H]1C/C=C/C=C/C=C/C=C/[C@H](O[C@@H]2O[C@H](C)[C@@H](O)[C@H](N)[C@@H]2O)C[C@@H]2O[C@](O)(C[C@@H](O)C[C@H]3O[C@@H]3/C=C/C(=O)O1)C[C@H](O)[C@H]2C(=O)O` [IV, natamycin, reference compound] the activity in retest [12] was “did not show any activity” and the “hit for restoring A3G CDA” value [2] was “hits”.
